Series [1] is described as follows: Solubility in water of possible ingredients. Type of series: physicochemical.
The nature of series [2]: Toxicity (hazard class) of possible ingredients. The conditions noted are these: hazard symbol or 'none'.

As for `CN1CCCC1=O` [N-methyl-2-pyrrolidinone], the “Solubility in H2O” value in series [1] (result in words) is listed as “complete”. Turning to `CCCCOCCOCCOC(C)=O` [[2-(2-butoxyethoxy)-ethyl]-acetate], in series [1] (given as percent), the “Solubility in H2O” value was found to be 6.5%. Also, the Toxicity result in series [2] was “none”.

Turning to `CCOC(=O)CC(CC(C)=O)C(=O)OCC` (centres unmarked) [diethyl acetonyl succinate], the Toxicity result in series [2] is listed as “none”. For the molecule `CCCCOCCOCCOCCCC` [diethylene glycol dibutyl ether], the “Solubility in H2O” value in series [1] (given as percent) was 0.3%. Take `CCOCCOCCOCC` [diethylene glycol diethyl ether]: the “Solubility in H2O” value in series [1] (result in words) is “complete”. The Toxicity result in series [2] is listed as “none”. As to `COCCOCCOC` [diethylene glycol dimethyl ether], the “Solubility in H2O” value in series [1] (result in words) is reported as “complete”. `CCCOCCOCCOCCC` [diethylene glycol dipropyl ether]: the “Solubility in H2O” value in series [1] (result in words) is reported as “complete”. Moreover, in series [2], the Toxicity entry is on record as “none”. With `CCCCOCCOCCO` [diethylene glycol monobutyl ether], in series [1] (given as percent), the “Solubility in H2O” value came to 10%.

`CCOCCOCCO` [diethylene glycol monoethyl ether]: in series [1] (result in words), the “Solubility in H2O” value is listed as “complete”. Further, in series [2], the Toxicity result was “none”. Consider `COCCOCCO` [diethylene glycol monomethyl ether], for which the “Solubility in H2O” value in series [1] (result in words) is recorded as “complete”. Regarding `CCCOCCOCCO` [diethylene glycol monopropyl ether], the “Solubility in H2O” value in series [1] (result in words) is recorded as “complete”. In addition, the Toxicity result in series [2] was “none”. Consider `COC(=O)CCC(=O)OC` [dimethyl succinate], for which the “Solubility in H2O” value in series [1] (given as percent) is reported as 7.5%.

In the case of `C[S+](C)[O-]` [dimethyl sulfoxide], in series [1] (result in words), the “Solubility in H2O” value is on record as “complete”. Moreover, the Toxicity result in series [2] is on record as “none”. With `COCC(C)OCC(C)OC` (centres unmarked) [dipropylene glycol dimethyl ether], the “Solubility in H2O” value in series [1] (result in words) is listed as “complete”. Moreover, the Toxicity result in series [2] is recorded as “none”. Take `CCOC(C)COC(C)CO` (centres unmarked) [dipropylene glycol monoethyl ether]: the “Solubility in H2O” value in series [1] (result in words) is given as “complete”. The Toxicity entry in series [2] is on record as “none”. As to `COC(C)COC(C)CO` (centres unmarked) [dipropylene glycol monomethyl ether], the “Solubility in H2O” value in series [1] (result in words) is reported as “complete”. The Toxicity result in series [2] is on record as “none”.

`CCCOC(C)COC(C)CO` (centres unmarked) [dipropylene glycol monopropyl ether]: the “Solubility in H2O” value in series [1] (result in words) is “complete”. The Toxicity result in series [2] is listed as “none”. For `O=C1OCCO1` [ethylene carbonate], the Toxicity entry in series [2] is “none”. As for `CC1COC(=O)O1` (centres unmarked) [propylene carbonate], the “Solubility in H2O” value in series [1] (given as percent) came out at 24%. As to `COCCOCCOCCOCCOC` [tetraethylene glycol dimethyl ether], the “Solubility in H2O” value in series [1] (result in words) is reported as “complete”. Further, the Toxicity entry in series [2] was “none”. For `COCCOCCOCCOCCO` [tetraethylene glycol monomethyl ether] the same measures were “complete” and “none”. For `COCCOCCOCCOC` [triethylene glycol dimethyl ether] the same measures were “complete” and “none”. Regarding `COCCOCCOCCO` [triethylene glycol monomethyl ether], the Toxicity result in series [2] was “none”. For the molecule `CCCCOC(C)COC(C)COC(C)CO` (centres unmarked) [tripropylene glycol monobutyl ether], the Toxicity result in series [2] is listed as “none”. Regarding `COC(C)COC(C)COC(C)CO` (centres unmarked) [tripropylene glycol monomethyl ether], the “Solubility in H2O” value in series [1] (result in words) was “complete”. The Toxicity entry in series [2] is listed as “none”. For the molecule `O=C1CCCO1` [γ-butyrolactone], in series [1] (result in words), the “Solubility in H2O” value was “complete”. On to PEG-8 Oleate, for which, in series [2], the Toxicity result was “none”. lauryl ethercarboxylic acid (10 EO): in series [1] (result in words), the “Solubility in H2O” value was “complete”. In addition, the Toxicity entry in series [2] is recorded as “none”. For octyl ethercarboxylic acid (8 EO) the same measures were “complete” and “none”. Regarding oleyl ethercarboxylic acid (9 EO), in series [1] (result in words), the “Solubility in H2O” value is “complete”. The Toxicity entry in series [2] is “none”.

Values taken from patent publication US20100273696A1, “Composition and method for the prevention and removal of unwanted paint on a surface” (priority 2009, published 2010).
